Data taken from patent publication US9365494B2, “Process for synthesis of amino-methyl tetralin derivatives” (Roche Palo Alto LLC, priority 2008, dated 2016).

Legend:
[1] = biological target: T1, recombinant human 5-HT6 receptor (Homo sapiens, UniProt P50406); experiment: Radioligand binding studies, 5-HT6 ligand affinity by competing for binding of [3H]LSD; settings: [3H]LSD competition; membranes of HEK293 cells stably expressing the receptor; pH 7.4, 37° C., 75 min; duplicate determinations; read-out: pKi for 5-HT6 (converted)
T1 construct: expressed in transfected cells; membranes)
Experimental: The binding activity of compounds of this invention in vitro was determined as follows. Duplicate determinations of 5-HT6 ligand affinity were made by competing for binding of [^3H]LSD in cell membranes derived from HEK293 cells stably expressing recombinant human 5-HT6 receptor. Duplicate determinations of 5-HT2A ligand affinity were made by competing for binding of [^3H]Ketanserin (3-(2-(4-(4-fluorobenzoyl)piperidinol)ethyl)-2,4(1H,3H)-quinazolinedione) in cell membranes derived from CHO-K1 cells stably expressing recombinant human 5-HT2A receptor. Membranes were prepared from HEK 293 cell lines by the method described by Monsma et al., Molecular Pharmacology, Vol. 43 pp. 320-327 (1993), and from CHO-K^1 cell lines as described by Bonhaus et al., Br J. Pharmacol. June; 115(4):622-8 (1995).
For estimation of affinity at the 5-HT6 receptor, all determinations were made in assay buffer containing 50 mM Tris-HCl, 10 mM MgSO4, 0.5 mM EDTA, 1 mM ascorbic acid, pH 7.4 at 37° C., in a 250 microliter reaction volume. For estimation of affinity at the 5-HT2A receptor all determinations were made in assay buffer containing 50 mM Tris-HCl, 5 mM ascorbic acid, 4 mM CaCl2, pH 7.4 at 32° C., in a 250 microliter reaction volume.
Assay tubes containing [^3H] LSD or [^3H]Ketanserin (5 nM), competing ligand, and membrane were incubated in a shaking water bath for 75 min. at 37° C. (for 5-HT6) or 60 min. at 32° C. (for 5-HT2A), filtered onto Packard GF-B plates (pre-soaked with 0.3% PEI) using a Packard 96 well cell harvester and washed 3 times in ice cold 50 mM Tris-HCl. Bound [^3H] LSD or [^3H]Ketanserin were determined as radioactive counts per minute using Packard TopCount.
Displacement of [^3H]LSD or [^3H]Ketanserin from the binding sites was quantified by fitting concentration-binding data to a 4-parameter logistic equation:
[formula] where Hill is the Hill slope, [ligand] is the concentration of competing radioligand and IC50 is the concentration of radioligand producing half-maximal specific binding of radioligand. […]

T1 sequence (P50406 whole entry): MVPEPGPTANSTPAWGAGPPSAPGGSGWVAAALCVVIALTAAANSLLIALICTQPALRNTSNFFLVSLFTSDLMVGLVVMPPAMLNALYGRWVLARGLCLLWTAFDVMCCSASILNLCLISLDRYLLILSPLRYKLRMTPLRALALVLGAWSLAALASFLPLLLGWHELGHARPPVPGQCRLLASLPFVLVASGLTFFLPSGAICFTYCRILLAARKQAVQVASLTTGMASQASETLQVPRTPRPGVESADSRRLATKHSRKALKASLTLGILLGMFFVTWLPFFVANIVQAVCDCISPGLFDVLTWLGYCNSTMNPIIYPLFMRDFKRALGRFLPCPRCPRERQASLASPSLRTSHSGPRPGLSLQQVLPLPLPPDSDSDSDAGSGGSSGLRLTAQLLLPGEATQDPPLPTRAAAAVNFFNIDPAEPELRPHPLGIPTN

Ki [1] [nM]	melting point [°C]	SMILES
0.178	152.5 to 153.8	CC(=O)NC[C@@H]1CCCc2cc(S(=O)(=O)c3ccccc3)cc(F)c21 [N-((R)-6-Benzenesulfonyl-8-fluoro-1,2,3,4-tetrahydro-naphthalen-1-ylmethyl)-acetamide]
0.158	193.5 to 194.4	NC(=O)NC[C@@H]1CCCc2cc(S(=O)(=O)c3cccc(F)c3)cc(F)c21 [[(R)-8-Fluoro-6-(3-fluoro-benzenesulfonyl)-1,2,3,4-tetrahydro-naphthalen-1-ylmethyl]-urea]
	131.9 to 132.6	NC(=O)[C@@H]1CCCc2cc(Sc3cccc(F)c3)ccc21 [Example 6, (R)-6-(3-Fluoro-phenylsulfanyl)-1,2,3,4-tetrahydro-naphthalene-1-carboxylic acid amide]
0.1		NC(=O)NC[C@@H]1CCCc2cc(S(=O)(=O)c3cccc(F)c3)ccc21 [[(R)-6-(3-Fluoro-phenylsulfonyl)-1,2,3,4-tetrahydro-naphthalen-1-ylmethyl]-urea]
